Source: publication PMC3848335, “Structure–Activity Relationships and Molecular Modeling of Sphingosine Kinase Inhibitors” (Journal of Medicinal Chemistry, 2013)
“Also recorded” adds a separate entry of the source.

What was measured:
SK1 [1] = target: T1, SK1 (Homo sapiens, UniProt Q9NYA1); test: SK1 activity assay (inhibition; [γ-32P]ATP, recombinant SK1 in HEK 293 cell lysates); format: biochemical; set-up: made in house; host or cells: HEK 293 cells (lysate, not purified); conditions: for SK1 inhibition (in words): 3 μM Sph, 250 μM ATP (Figure 3); for isoform selectivity SK1 vs SK2 (in words): comparison of inhibition of SK1 (3 μM Sph) and SK2 (10 μM Sph)
SK1 [2] = target: T1, SK1; test: Evaluation of compounds as putative substrates of SK1 (absence of Sph); conditions: 50 μM compound, 250 μM ATP
SK2 [3] = target: T2, SK2 (Homo sapiens, UniProt Q9NRA0); test: SK2 activity assay (inhibition; [γ-32P]ATP, purified SK2); format: biochemical; conditions: 50 μM compound, 10 μM Sph, 250 μM ATP (Figure 3)
T2 sequence (Q9NRA0 1-654): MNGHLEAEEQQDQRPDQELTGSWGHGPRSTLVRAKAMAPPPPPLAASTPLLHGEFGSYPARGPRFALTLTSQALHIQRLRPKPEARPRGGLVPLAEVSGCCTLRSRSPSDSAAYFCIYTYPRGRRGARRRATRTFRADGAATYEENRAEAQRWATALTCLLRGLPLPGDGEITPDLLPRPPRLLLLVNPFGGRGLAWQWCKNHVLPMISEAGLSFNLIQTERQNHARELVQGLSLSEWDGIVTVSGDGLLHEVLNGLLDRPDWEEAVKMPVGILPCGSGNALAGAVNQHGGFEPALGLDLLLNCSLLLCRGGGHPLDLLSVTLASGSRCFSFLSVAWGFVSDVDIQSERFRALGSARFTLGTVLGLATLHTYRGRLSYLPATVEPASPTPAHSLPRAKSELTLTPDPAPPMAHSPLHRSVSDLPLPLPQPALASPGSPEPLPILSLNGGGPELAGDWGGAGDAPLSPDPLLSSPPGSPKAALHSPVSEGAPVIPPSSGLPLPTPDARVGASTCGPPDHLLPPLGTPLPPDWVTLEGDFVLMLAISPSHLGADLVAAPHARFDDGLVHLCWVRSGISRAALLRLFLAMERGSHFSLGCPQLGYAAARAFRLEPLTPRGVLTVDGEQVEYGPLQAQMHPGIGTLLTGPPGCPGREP
Description: To examine SAR among a panel of related compounds, we prepared a series of analogues bearing a 4-hydroxypiperidinyl group but varied the linker length between the aryl group and the piperidine. We also assessed the role of the alkyl substituent in the aryl group.
Figure 3 Effect of inhibitors on SK1 or SK2 activity. SK1 activity was measured using 3 μM Sph and 250 μM ATP. SK2 activity was assayed using 10 μM Sph and 250 μM ATP (n = 3 for each compound; results are expressed as % of control ± SD). […]. The control is 100% and equals activity against Sph alone.
Sphingosine kinase activity assays.
For SK2 activity assays, sphingosine (Sph) was complexed with fatty acid free bovine serum albumin (final concentration, 0.2 mg/mL) in reaction buffer 1 containing 20 mM Tris (pH 7.4), 1 mM EDTA, 1 mM Na3VO4, 40 mM β−glycerophosphate, 1 mM NaF, 0.007% (v/v) β6mercaptoethanol, 20% (v/v) glycerol, 10 µg/mL aprotinin, 10 µg/mL soybean trypsin inhibitor, 1 mM PMSF, 0.5 mM 46 deoxypyridoxine, and 400 mM KCl. Inhibition of SK2 activity was determined by incubating 37 ng of purified SK2 for 30 min at 30 °C in the presence of 10 µM Sph, 250 µM of [γ632P]ATP (specific activity, 4.4×10^4 cpm/nmol) in 10 mM MgCl2, and varying concentrations of the inhibitors dissolved in DMSO or control (5% v/v DMSO). […]
Compounds bearing hydroxyl groups were assessed for their ability to act as substrates for SK1 and […]

SK2 [4] = target: T2, SK2; test: Evaluation of compounds as putative substrates of SK2 (absence of Sph); conditions: 50 μM compound, 250 μM ATP, absence of Sph (Fig. S1)

T1 sequence (Q9NYA1 whole entry, canonical isoform): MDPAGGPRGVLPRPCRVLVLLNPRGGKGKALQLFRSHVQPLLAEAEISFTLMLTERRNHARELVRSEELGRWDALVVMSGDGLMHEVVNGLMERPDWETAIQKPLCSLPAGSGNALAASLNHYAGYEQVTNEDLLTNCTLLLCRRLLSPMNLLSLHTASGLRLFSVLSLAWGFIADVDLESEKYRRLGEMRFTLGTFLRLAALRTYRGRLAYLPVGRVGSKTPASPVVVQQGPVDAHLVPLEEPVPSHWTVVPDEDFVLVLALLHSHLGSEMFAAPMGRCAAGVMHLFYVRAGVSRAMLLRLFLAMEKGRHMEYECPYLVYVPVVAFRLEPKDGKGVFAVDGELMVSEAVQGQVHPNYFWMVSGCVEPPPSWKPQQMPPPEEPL

Compound | SK1 inhibition (in words) (SK1 [1]; 50 μM compound) | other results
1-Methyl-4-(4-octylphenethyl)pyridinium Iodide [RB-052] | ineffective as SK inhibitors | 
4-(4-Octylphenethyl)pyridine [RB-051] | effectively abolished | 
CCCCCCCCc1ccc(CN2CCC(O)CC2)cc1 [RB-023, 1-(4-Octylbenzyl)piperidin-4-ol] | did not significantly alter | 
CCCCCCCCc1ccc(CCCN2CCC(O)CC2)cc1 [RB-024, 1-(3-(4-Octylphenyl)propyl)piperidin-4-ol] | did not significantly alter | 
CCCCCCCCc1ccc(CCCCN2CCC(O)CC2)cc1 [RB-025, 1-(4-(4-Octylphenyl)butyl)piperidin-4-ol] | did not significantly alter | substrate for SK1 (in words) (SK1 [2]): not substrates for SK1
Cc1ccc(CCN2CCC(O)CC2)cc1 [RB-026, 1-(4-Methylphenethyl)piperidin-4-ol] | almost complete lack of inhibition | decrease of SK1 inhibition compared with RB-023 (SK1 [1]; 50 μM compound): more than 6 fold
CCCCCCCCCCCCc1ccc(CCN2CCC(O)CC2)cc1 [RB-028, 1-(4-Dodecylphenethyl)piperidin-4-ol] |  | substrate for SK1 (in words) (SK1 [2]): not substrates for SK1
Cc1ccc(CCN2CCC(N=[N+]=[N-])CC2)cc1 [RB-029, 4-Azido-1-(4-methylphenethyl)piperidine] | reduced SK1 inhibition markedly | 
CCCCCCCCc1ccc(CCN2CCC(N=[N+]=[N-])CC2)cc1 [RB-030, 4-Azido-1-(4-octylphenethyl)piperidine] | reduced SK1 inhibition markedly | 
Cc1ccc(CCN2CCC(N)CC2)cc1 [RB-031, 1-(4-Methylphenethyl)piperidin-4-amine] | eliminated the inhibitory activity toward SK1 | 
CCCCCCCCc1ccc(CCN2CCC(N)CC2)cc1 [RB-032, 1-(4-Octylphenethyl)piperidin-4-amine] | diminished the potency of SK1 inhibition | isoform selectivity SK1 vs SK2 (in words) (SK1 [1]): isoform selectivity of SK1 over SK2 was retained
CCCCCCCCCCCCc1ccc(CCN2CCC(N)CC2)cc1 [RB-033, 1-(4-Dodecylphenethyl)piperidin-4-amine] | eliminated the inhibitory activity toward SK1 | 
CCCCCCCCc1ccc(CCN2CCC(F)CC2)cc1 [RB-034, 4-Fluoro-1-(4-octylphenethyl)piperidine] | eliminated inhibitory activity against SK1 | 
CCCCCCCCc1ccc(CCN2CCC(=O)CC2)cc1 [RB-035, 1-(4-Octylphenethyl)piperidin-4-one] | maintained inhibition of SK1 | SK2 inhibition (in words) (SK2 [3]): increased inhibition of SK2; isoform selectivity SK1 vs SK2 (in words) (SK1 [1]): eliminated the isoform selectivity
CCCCCCCCc1ccc(CCN2CCC(OC)CC2)cc1 [RB-036, 4-Methoxy-1-(4-octylphenethyl)piperidine] | eliminated inhibitory activity against SK1 | 
CCCCCCCCc1ccc(CCN2CC[C@H](O)C2)cc1 [RB-037, (S)-1-(4-Octylphenethyl)pyrrolidin-3-ol] | retained inhibitory activity against SK1 | substrate for SK2 (in words) (SK2 [4]): weak substrates for SK2
CCCCCCCCc1ccc(CCN2CC[C@@H](O)C2)cc1 [RB-038, (R)-1-(4-Octylphenethyl)pyrrolidin-3-ol] | retained inhibitory activity against SK1 | 
Cc1ccc(CCN2CCC[C@@H]2CO)cc1 [RB-039, (R)-(1-(4-Methylphenethyl)pyrrolidin-2-yl)methanol] | abolished | 
CCCCCCCCc1ccc(CCN2CCC[C@@H]2CO)cc1 [RB-040, (R)-(1-(4-Octylphenethyl)pyrrolidin-2-yl)methanol] |  | isoform selectivity SK1 vs SK2 (in words) (SK1 [1]): equipotent inhibitors of SK1 and SK2
CCCCCCCCc1ccc(CCN2CCC[C@H]2CO)cc1 [RB-041, (S)-(1-(4-Octylphenethyl)pyrrolidin-2-yl)methanol] | much less active | substrate for SK2 (in words) (SK2 [4]): weak substrates for SK2
CCCCCCCCCCCCc1ccc(CCN2CCC[C@@H]2CO)cc1 [RB-042, (R)-(1-(4-Dodecylphenethyl)pyrrolidin-2-yl)methanol] |  | isoform selectivity SK1 vs SK2 (in words) (SK1 [1]): equipotent inhibitors of SK1 and SK2
CCCCCCCCCCCCc1ccc(CCN2CCC[C@H]2CO)cc1 [RB-043, (S)-(1-(4-Dodecylphenethyl)pyrrolidin-2-yl)methanol] | much less active; also recorded: abolished | substrate for SK2 (in words) (SK2 [4]): weak substrates for SK2
CCCCCCCCc1ccc(C(=O)NCc2ccncc2)cc1 [RB-048, 4-Octyl-N-(pyridin-4-ylmethyl)benzamide] | effectively abolished | 
CCCCCCCCc1ccc(C[n+]2ccc(N3CCC(C)CC3)cc2)cc1.[Br-] [RB-053, 4-(4-Methylpiperidin-1-yl)-1-(4-octylbenzyl)pyridinium Bromide] | ineffective as SK inhibitors | isoform selectivity SK1 vs SK2 (in words) (SK1 [1]): moderate selectivity for SK2
CCCCc1cn(-c2ccc(CC[N+]3(C)CCCCC3)cc2)nn1.CS(=O)(=O)[O-] [RB-060, 1-(4-(4-Butyl-1H-1,2,3-triazol-1-yl)phenethyl)-1-methylpiperidinium Methanesulfonate] | ineffective as SK inhibitors | 
CCCCCc1cn(-c2ccc(CC[N+]3(C)CCCCC3)cc2)nn1.CS(=O)(=O)[O-] [RB-061, 1-Methyl-1-(4-(4-pentyl-1H-1,2,3-triazol-1-yl)phenethyl)piperidinium Methanesulfonate] | ineffective as SK inhibitors | 
CCCCCCCCc1cn(-c2ccc(CC[N+]3(C)CCCCC3)cc2)nn1.CS(=O)(=O)[O-] [RB-062, 1-Methyl-1-(4-(4-octyl-1H-1,2,3-triazol-1-yl)phenethyl)piperidinium Methanesulfonate] | ineffective as SK inhibitors | 
CCCCCCCCc1cn(-c2ccc(CCN3CCC(O)CC3)cc2)nn1 [RB-065] |  | isoform selectivity SK1 vs SK2 (in words) (SK1 [1]): highly selective SK1 inhibitor
